The values that follow come from article PMC6934184, “Selective DNA-PKcs inhibition extends the therapeutic index of localized radiotherapy and chemotherapy” (The Journal of Clinical Investigation, 2019).

For the assay, the system named is NHEJ-mediated DSB repair in HEK293T cells. Put plainly: NHEJ plasmid repair assay. In kind it is cell-based, Human. The following applies: 1 μM; 24 hours; AfeI or ScaI linearized plasmid. On the procedure:
The ability of NU5455 to impair the nonhomologous end joining (NHEJ) ability of cells was assessed using a modified version of a DNA repair assay developed by Nagel et al. ([52]), which measures the repair of a plasmid encoding blue fluorescent protein (BFP) and GFP linearized by either an ScaI or an AfeI restriction digestion. Full experimental details are given in Supplemental Methods.
Membranes were then washed in TBST and incubated with HRP-conjugated goat anti-mouse or anti-rabbit antibodies (P0447 and P0448 respectively, Dako) in 5% (w/v) milk/TBST at room temperature for 1-2 hours. Conjugates were detected using Clarity Western ECL Substrate (BioRad) and chemiluminescence imaged using the Fuji LAS-3000 Luminescent Image Analyzer System (Fujifilm).
Densitometry analysis was performed using AIDA Image Analyzer software (Raytest). The intensity of all bands was determined following a background subtraction, and the level of pDNA-PKcs stimulation determined by subtracting basal unstimulated pDNA-PKcs Ser2056 levels. pDNA-PKcs Ser2056 band intensity was calculated relative to total DNA-PKcs band intensity, and is given as percentage expression relative to irradiated, DMSO-treated cells. […]
violet laser with 440/50 emission filter to detect blue fluorescence using the VL1 channel. […]
Data were analyzed by FCS Express 6 Flow Research Edition (De Novo Software). […]

Take `CN(C(=O)CN1CCOCC1)c1ccc2sc3c(-c4cccc5c(=O)cc(N6CC7CCC(C6)O7)oc45)cccc3c2c1` [NU5455]: the “repair of DNA-DSBs (NHEJ plasmid repair)” value is recorded as “inhibit the repair of DNA-DSBs”.
